# In US20250275975A1, “Methods of Treating Neuropathies” (Athira Pharma, Inc., priority 2023, published 2025):
# Key:
# [1] = tested on: neuron-Schwann cell co-cultures injured with cisplatin; experiment: Sensory neurite extension and myelination in cisplatin-injured primary dorsal root ganglia cultures; type: cell-based, rat; set-up: key to Significant promotion of Neurite Network Extension of Sensory Neurons / Significant promotion of Myelination of Sensory neurons by Schwann Cells: “NS” indicates the treatment did not have a significant effect; “+” indicates the treatment had a significant effect; settings: for Significant promotion of Myelination of Sensory neurons by Schwann Cells / Significant promotion of Neurite Network Extension of Sensory Neurons: +Cisplatin injury (10 μg/ml, 24 hours), vs Cisplatin-treated group
# Description: (§1) To assess the effects of test compound treatment on these structures central to neuropathic pathology, peripheral sensory neurons were modeled using dissociated primary cultures of neurons and Schwann cells collected from fetal rats. Fetal rats were collected from pregnant females after 15 days of gestation, and the dorsal root ganglion was dissociated via trypsin digestion and mechanical disruption. The resulting cells were plated and allowed to grow for 7 days. On day 7 in culture, ascorbic acid at a concentration of 50 μM was added to the culture to promote myelination of sensory neurons by Schwann cells.
# To model the effects of neuropathic injury in sensory neurons and associated Schwann cells, cultures were injured with the chemotherapy drug cisplatin. These cultures were prepared identically to those described above. In this system, Compound 5a, HGF, and β-estradiol treatments began on culture day 19. Also on culture day 19, cisplatin (10 μg/ml) was added to the cultures for 24 hours. On culture day 20, cisplatin was removed from the media while test compound treatments were replaced for 24 hours. On day 21 in culture, cells were fixed and processed for immunodetection as described above.
# (§2) 30 fluorescent images were captured for each treatment group and images were quantified by automated image analysis. Neurite network extension was quantified as the total length of MAP2-positive neurites per cell measured in μm. Myelination by Schwann cells was quantified by the area of overlap between MAP2-positive neurites and MAG-positive myelin wrapping measured in μm^2. Statistical analysis was performed as a one-way ANOVA with Fisher's LSD post-test against either vehicle- or Cisplatin-treated groups respectively.
# STZ DNP rats [2] = experiment: Mechanical allodynia rescue assay (Von Frey paw withdrawal threshold), Example B1; type: in vivo, Sprague Dawley rats; set-up: key to Efficacy: rescue of mechanical allodynia behavior as measured by paw withdrawal threshold: NS indicates treatment did not significantly affect paw withdrawal threshold vs disease control.; + indicates p < 0.05 vs disease control.; ++ indicates p < 0.01 vs disease control.; +++ indicates p < 0.001 vs disease control; settings: for Efficacy: rescue of mechanical allodynia behavior as measured by paw withdrawal threshold: study day 28 after 14 days of treatment, p vs disease control
# Source text: Hyperglycemic rats consistently develop neuropathic pain-associated behaviors including mechanical allodynia. Allodynia refers to a type of neuropathic pain characterized by increased sensitivity to stimuli that are not normally painful. Mechanical allodynia is quantified in rats by determination of the force required to induce a withdrawal of the paw and is negatively associated with allodynia such that, the lower the force required to induce paw withdrawal, the greater the pain behavior.
# (§3) A series of studies were performed to determine the ability of HGF/MET positive modulator compounds to reduce the mechanical allodynia pain behaviors in hyperglycemic rats. A single dose of STZ (55 mg/kg via intravenous (IV)) was administered to induce a Type I diabetic hyperglycemia in male Sprague Dawley rats. Hyperglycemia was confirmed 4 days after STZ administration, with blood glucose levels above 200 mg/dL considered successful model induction. 14 days after disease induction, test compound treatment was initiated and continued as daily compound administration over the remaining course of the study. Route and dose for each compound were determined by pharmacokinetic and distribution modelling. Control groups included animals with no diabetic induction (Sham control), animals with diabetes but treated only with formulation vehicle (DNP (diabetic peripheral neuropathy) control), and disease animals treated with pregabalin (30 mg/kg via PO), which is known to reduce neuropathic pain behaviors.
# (§4) Changes to neuropathic pain behaviors were assessed after 14 days of compound treatment on study day 28. Mechanical allodynia was tested by placing each animal on an elevated wire grid and stimulating the plantar surface of the right rear paw with a series of filaments corresponding to increasing orders of force, reaching a maximum force of 60 grams (Aesthesio manual Von Frey filaments). The force of the filament that causes paw withdrawal was considered the paw withdrawal threshold in grams. Pain sensitivity in response to thermal hyperalgesia was determined by using hot plate method and represented as paw withdrawal latency (PWL). Rats were placed on the hot plate (52.5° C.), and the time taken to show the nocifensive behavior (either licking or jumping) of any of their paws was recorded. Statistical comparison of treatment groups to DNP control groups was performed by one-way ANOVA followed by Dunnett's multiple comparisons test.
# [3] = tested on: neuron-Schwann cell co-cultures; experiment: Sensory neurite extension and myelination in healthy primary dorsal root ganglia cultures; type: cell-based, rat; set-up: key to Significant promotion of Neurite Network Extension of Sensory Neurons / Significant promotion of Myelination of Sensory neurons by Schwann Cells: “NS” indicates the treatment did not have a significant effect; “+” indicates the treatment had a significant effect; settings: for Significant promotion of Myelination of Sensory neurons by Schwann Cells / Significant promotion of Neurite Network Extension of Sensory Neurons: Healthy cultures, vs vehicle
# Description: as §1
# To model the effects of Compound 5a in the normal peripheral nervous system, neuron-Schwann cell co-cultures were treated with Compound 5a in combination with low doses of recombinant hepatocyte growth factor (HGF). On day 8 in culture, experimental treatments were added to culture media. These treatments included HGF with or without Compound 5a. Some cultures were treated with the steroid hormone B-estradiol to serve as a positive control. Treatments were applied every other day, and on day 21 in culture the cultures were fixed with ethanol and processed for immunodetection of both microtubule-associate protein 2 (MAP2) to reveal neurons and their neurites as well as myelin-associated glycoprotein (MAG) to reveal Schwann cells and the extent of their myelination of cultured neurites. Cells were counterstained with Hoechst DNA dye to identify individual cells.
# as §2
# STZ DNP rats [4] = experiment: Thermal hyperalgesia rescue assay (hot plate paw withdrawal latency), Example B1; type: in vivo, Sprague Dawley rats; set-up: key to Efficacy: rescue of thermal hyperalgesia behavior as measured by paw withdrawal latency: NS indicates treatment did not significantly affect paw withdrawal latency vs disease control.; + indicates p < 0.05 vs disease control.; ++ indicates p < 0.01 vs disease control.; +++ indicates p < 0.001 vs disease control; settings: for Efficacy: rescue of thermal hyperalgesia behavior as measured by paw withdrawal latency: study day 28 after 14 days of treatment, hot plate 52.5° C., p vs disease control
# Description: as §3, §4
# [5] = Compound 5a 0.1 μM with HGF 0.05 ng/ml
# [6] = Compound 5a 0.5 μM with HGF 0.05 ng/ml
# [7] = Compound 5a 1 μM with HGF 0.05 ng/ml
# [8] = injured cultures, Compound 5a at 0.1, 0.5, and 1 μM with HGF (0.05 ng/ml)
# [9] = healthy cultures, 0.5 μM Compound 5a with HGF (0.05 ng/ml)
structure (smiles),measurement,setting,value
CCC(C)CN1CC2N(Cc3ccc(C(F)(F)F)cc3)CCC(=O)N2[C@@H](C)C1=O (stereo partly shown) [Compound 5a],Significant promotion of Myelination of Sensory neurons by Schwann Cells,[1]; [5],+
same,Significant promotion of Neurite Network Extension of Sensory Neurons,[1]; [5],+
same,Significant promotion of Myelination of Sensory neurons by Schwann Cells,[1]; [6],+
same,Significant promotion of Neurite Network Extension of Sensory Neurons,[1]; [6],+
same,Significant promotion of Myelination of Sensory neurons by Schwann Cells,[1]; [7],+
same,Significant promotion of Neurite Network Extension of Sensory Neurons,[1]; [7],+
same,myelination,[1]; [8],significantly promoted
same,neurite network extension,[1]; [8],significantly promoted
same,Efficacy: rescue of mechanical allodynia behavior as measured by paw withdrawal threshold,STZ DNP rats [2]; 0.003 mg/kg IV daily,NS
same,Efficacy: rescue of mechanical allodynia behavior as measured by paw withdrawal threshold,STZ DNP rats [2]; 0.015 mg/kg IV daily,NS
same,Efficacy: rescue of mechanical allodynia behavior as measured by paw withdrawal threshold,STZ DNP rats [2]; 0.075 mg/kg IV daily,NS
same,Efficacy: rescue of mechanical allodynia behavior as measured by paw withdrawal threshold,STZ DNP rats [2]; 0.375 mg/kg IV daily,++ (++ indicates p < 0.01 vs disease control.)
same,Efficacy: rescue of mechanical allodynia behavior as measured by paw withdrawal threshold,STZ DNP rats [2]; 1 mg/kg PO daily,++ (++ indicates p < 0.01 vs disease control.)
same,Efficacy: rescue of mechanical allodynia behavior as measured by paw withdrawal threshold,STZ DNP rats [2]; 2 mg/kg PO daily,+++ (+++ indicates p < 0.001 vs disease control.)
same,Efficacy: rescue of mechanical allodynia behavior as measured by paw withdrawal threshold,STZ DNP rats [2]; 10 mg/kg PO daily,+++ (+++ indicates p < 0.001 vs disease control.)
same,Efficacy: rescue of mechanical allodynia behavior as measured by paw withdrawal threshold,STZ DNP rats [2]; 20 mg/kg PO daily,+++ (+++ indicates p < 0.001 vs disease control.)
same,rescue of the mechanical allodynia behavior as measured by paw withdrawal threshold,STZ DNP rats [2]; STZ DNP rats,significant rescue
same,Significant promotion of Myelination of Sensory neurons by Schwann Cells,[3]; [5],+
same,Significant promotion of Neurite Network Extension of Sensory Neurons,[3]; [5],NS
same,Significant promotion of Myelination of Sensory neurons by Schwann Cells,[3]; [6],+
same,Significant promotion of Neurite Network Extension of Sensory Neurons,[3]; [6],+
same,Significant promotion of Myelination of Sensory neurons by Schwann Cells,[3]; [7],NS
same,Significant promotion of Neurite Network Extension of Sensory Neurons,[3]; [7],NS
same,myelination,[3]; [9],significant promotion
same,neurite network extension,[3]; [9],significant promotion
same,Efficacy: rescue of thermal hyperalgesia behavior as measured by paw withdrawal latency,STZ DNP rats [4]; 0.003 mg/kg IV daily,+ (+ indicates p < 0.05 vs disease control.)
same,Efficacy: rescue of thermal hyperalgesia behavior as measured by paw withdrawal latency,STZ DNP rats [4]; 0.015 mg/kg IV daily,NS
same,Efficacy: rescue of thermal hyperalgesia behavior as measured by paw withdrawal latency,STZ DNP rats [4]; 0.075 mg/kg IV daily,+ (+ indicates p < 0.05 vs disease control.)
same,Efficacy: rescue of thermal hyperalgesia behavior as measured by paw withdrawal latency,STZ DNP rats [4]; 0.375 mg/kg IV daily,++ (++ indicates p < 0.01 vs disease control.)
same,Efficacy: rescue of thermal hyperalgesia behavior as measured by paw withdrawal latency,STZ DNP rats [4]; 1 mg/kg PO daily,NS
same,Efficacy: rescue of thermal hyperalgesia behavior as measured by paw withdrawal latency,STZ DNP rats [4]; 2 mg/kg PO daily,+ (+ indicates p < 0.05 vs disease control.)
same,Efficacy: rescue of thermal hyperalgesia behavior as measured by paw withdrawal latency,STZ DNP rats [4]; 10 mg/kg PO daily,+++ (+++ indicates p < 0.001 vs disease control.)
same,Efficacy: rescue of thermal hyperalgesia behavior as measured by paw withdrawal latency,STZ DNP rats [4]; 20 mg/kg PO daily,+++ (+++ indicates p < 0.001 vs disease control.)
same,rescue of thermal allodynia behavior as measured by paw withdrawal latency,STZ DNP rats [4]; STZ DNP rats,significant rescue
